Measured values reported in patent US7442513B2, “Method of screening for agents that modulate a homer signaling pathway” (The Johns Hopkins University, priority 2003, dated 2008).

How the values were obtained:
[1] = system: TrpC1 binding to Homer1EVH1; experiment: TrpC1 binding to GST-Homer1 EVH1 after treating TrpC1-expressing HEK293 cells with FK506; type: cell-based; details: 150 nM
Experimental: HEK293 cells that transiently express TrpC1 were treated with FK506 for indicted time prior to preparation of lysates and binding to GST-Homer. Note that FK506 treatment increases TrpC1 binding to Homer.
An observation from the Homer-TrpC1 binding data remained enigmatic. […] Additionally, certain point mutants of the C-terminal Homer ligand increase binding to Homer. […] The possibility that an FKBP homologue might bind mammalian TrpC1 and impact the binding of Homer was explored. As a first test of this hypothesis, the consequence of treating cells expressing TrpC1 with FK506, and then testing TrpC1 binding to GST-Homer was examined. HEK293 cells were transfected with wt TrpC1 and treated with 150 nM FK506 for times ranging from 15 min to 24 hrs. Cells lysates were prepared in 1% Triton and mixed with GST-Homer1 EVH1 and bound TrpC1 assayed by western blot. Lysates were also assayed to compare expression in each of the samples. […] This effect was detected as early as 30 min after addition of FK506 and persisted for 24 hrs. A peak of increased binding appeared at ˜6hrs. […] It was concluded that FK506 increases the binding of TrpC1 to Homer at a dose that is known to the relevant for FKBP.

mGluR5 binding to Homer = experiment: mGluR5 binding to GST-Homer after treating mGluR5-expressing HEK293 cells with PPIase inhibitors (pull-down, western blot); type: cell-based; details: for effect on mGluR5 binding to GST-Homer: HEK293 cells expressing mGluR5, 1 micromolar in medium, differing intervals
Experimental: HEK293 cells were transfected with pRK5-mGluR5. 1 micromolar FK506 was added to the medium for differing intervals prior to harvesting and preparation of lysates in the indicated buffer, which include inhibitors of phosphatases and proteases. Lysates were mixed with glutathione agarose beads loaded with GST-Homer 3 EVH1 domain for 1 hr at 4 C. mGluR5 that bound to Homer was then analyzed by western blot. Lysates were also assayed to confirm expression of mGluR5 (lower panel). Note the increase in mGluR5 that binds to Homer from lysates of cells treated for 3 hrs or longer with FK506.
If PPIases regulate the conformational state of the mGluR5, it was anticipated that PPIase inhibitors would alter the ability of the mGluR5 to bind to Homer. To examine this hypothesis, Homer was expressed as a bacterial fusion protein with glutathione S-transferase (GST) and loaded the protein on a glutathione agarose bead. These binding assays are identical to those used previously to document the ligand consensus sequence in mGluR5 (Tu et al., 1998), and for analysis of the binding surfaces of Homer (Beneken et al., 2000).
Cells were treated for different times with PPIase inhibitors and then harvested in buffer containing protease and phosphatase inhibitors and 1% Triton detergent. Soluble lysates were then mixed with beads loaded with GST-Homer incubated for 1 hr at 4° C., washed several times and proteins eluted with SDS loading buffer. […] Increased binding was detected by 3 hrs and remained elevated for 24 hrs.

[2] = target: T1, TrpC1 binding to GST-FKBP52 (Homo sapiens, UniProt Q02790); experiment: TrpC1 binding to GST-FKBP52 after pretreating cell lysates with PPIase inhibitors
T1 construct: expressed in transfected cells; host or cells: HEK293 cell lysate (TrpC1)
T1 sequence (Q02790 1-459): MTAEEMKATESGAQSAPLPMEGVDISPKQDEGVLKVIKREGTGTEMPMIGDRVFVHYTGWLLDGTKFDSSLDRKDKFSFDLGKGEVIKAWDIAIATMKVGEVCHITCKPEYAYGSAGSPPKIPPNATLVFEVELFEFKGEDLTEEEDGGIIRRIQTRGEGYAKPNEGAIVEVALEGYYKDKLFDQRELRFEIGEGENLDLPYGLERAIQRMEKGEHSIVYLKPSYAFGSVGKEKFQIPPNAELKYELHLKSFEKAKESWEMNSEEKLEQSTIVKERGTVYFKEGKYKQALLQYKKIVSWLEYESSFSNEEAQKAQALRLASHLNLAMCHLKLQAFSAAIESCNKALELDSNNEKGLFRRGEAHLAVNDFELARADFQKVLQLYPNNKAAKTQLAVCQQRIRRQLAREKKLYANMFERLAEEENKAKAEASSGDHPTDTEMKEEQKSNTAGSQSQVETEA
Excerpt: To further test this hypothesis, the binding of TrpC1 to GST-FKBP12 or GST-FKBP52 was examined. Also, the effect of pretreating cell lysates with FK506, GPI-1046, cyclosporin A or the control agent aniracetam (structurally similar to GPI-1946) was examined. The notion being that dissociation of endogenous FKBP would increase the availability of TrpC1 to bind GST-FKBP in vitro. The FK506 might also be expected to bind to GST-FKBP but because this protein is highly concentrated on the bead and is in vast excess to cellular FKBP, the net consequence of drug treatment would be increased binding of TrpC1 to GST-FKBP. In these assays, TrpC1 bound to FKBP52 (FIG. 15), but not to FKBP12. Binding of TrpC1 to GST-FKBP52 was increased by treatment with both FK506 and GPI1046. The effect of these agents was particularly robust for the dimeric TrpC1 species and was detected with 100 nM FK506 or GPI1046. These studies confirmed that TrpC1 is bound by Homer and FKBP52, and that treatment of cell lysates or cells with drugs that inhibit rotamase activity and dissociate rotamases from their target proteins, result in enhanced binding of TrpC1 to both Homer (FIG. 14) and FKBP52 (FIG. 15).

TrpC1 binding to Homer = experiment: TrpC1 binding to GSTHomer after treating lysates of TrpC1-expressing HEK293 cells; details: for effect on TrpC1 binding to Homer: lysates treated with indicated concentrations
Experimental: TrpC1 was transiently expressed in HEK293 cells and lysates were treated with the indicated concentrations of FK506, GPI1046, cyclosporin A or aniracetam (negative control) and assayed for TrpC1 binding to GSTHomer. TrpC1 migrates as both a monomer and dimer. Note that FK506, GPI1046 and cyclosporin A (but not aniracetam) treatment results in increased TrpC1 binding to Homer.

[3] = 1 micromolar, HEK293 cells expressing mGluR5

concentration at which increased TrpC1 binding to GST-FKBP52 was detected ([2]; dimeric TrpC1 species, pretreated lysates) [nM] | effect on binding of TrpC1 to GST-FKBP52 ([2]; pretreated cell lysates) | SMILES | earliest time at which increased TrpC1 binding was detected [1] [min] | time for which increased TrpC1 binding persisted [1] [h] | time of peak of increased TrpC1 binding [1] [h] | time for which mGluR5 binding remained elevated (mGluR5 binding to Homer; [3]) [h] | effect on TrpC1 binding to Homer at 10 nM (TrpC1 binding to Homer; 10 nM) | effect on TrpC1 binding to Homer with higher doses or longer times (TrpC1 binding to Homer; doses higher than 10 nM or longer times) | effect on TrpC1 binding to Homer (TrpC1 binding to Homer) | effect on TrpC1 binding to Homer (TrpC1 binding to Homer; listed as GPI 1046) | mGluR5 binding after 12 or 24 hrs of treatment (mGluR5 binding to Homer; 1 micromolar, 12 or 24 hrs) | effect on expression of mGluR5 in lysates (mGluR5 binding to Homer; 1 micromolar, HEK293 cells) | treatment time of peak mGluR5 binding (mGluR5 binding to Homer; [3]) [h] | treatment time within which mGluR5 binding increased (mGluR5 binding to Homer; [3]) [min] | effect on mGluR5 binding to GST-Homer (mGluR5 binding to Homer) | effect on mGluR5 binding to GST-Homer (mGluR5 binding to Homer; listed as GPI 1046)
– | – | C=CC[C@@H]1/C=C(\C)C[C@H](C)C[C@H](OC)[C@H]2O[C@@](O)(C(=O)C(=O)N3CCCC[C@H]3C(=O)O[C@H](/C(C)=C/[C@@H]3CC[C@@H](O)[C@H](OC)C3)[C@H](C)[C@@H](O)CC1=O)[C@H](C)C[C@@H]2OC [FK506] | 30 | 24 | ~6 | 24 | – | – | – | – | – | – | – | – | – | –
100 | increased | CCC(C)(C)C(=O)C(=O)N1CCC[C@H]1C(=O)OCCCc1cccnc1 [GPI1046] | – | – | – | – | potent enhancement | decreases | increased | enhanced | decreased | did not significantly alter | ≤ 3 | ≤ 30 | time-dependent increase | effective in increasing
– | – | COc1ccc(C(=O)N2CCCC2=O)cc1 [aniracetam] | – | – | – | – | – | – | not | – | – | – | – | – | – | –
